# Data taken from patent US20110318741A1, “BIOMARKERS FOR THE TREATMENT OF PSORIASIS” (priority 2010, published 2011).
# Tested on: proinflammatory gene products in psoriasis lesional skin
# Assay: mRNA abundance of inflammatory molecules in skin biopsies by real-time RT-PCR, normalized to hARP
# Format: in vivo, human
# Settings: for IL-22/hARP: Gene Expression Median Change (%) / IL-2/hARP: Gene Expression Median Change (%) / p40/hARP: Gene Expression Median Change (%) / CD83/hARP: Gene Expression Median Change (%) / IFNγ/hARP: Gene Expression Median Change (%) / iNOS/hARP: Gene Expression Median Change (%) / DEFB4/hARP: Gene Expression Median Change (%) / IL-17A/hARP: Gene Expression Median Change (%) / CXCL9/hARP: Gene Expression Median Change (%) / MX1/hARP: Gene Expression Median Change (%) / TNFα/hARP: Gene Expression Median Change (%) / IL-8/hARP: Gene Expression Median Change (%) / IL-10/hARP: Gene Expression Median Change (%) / K16/hARP: Gene Expression Median Change (%) / p19/hARP: Gene Expression Median Change (%): 20 mg BID, subjects also with PASI values
# Procedure: mRNA abundance for a variety of inflammatory molecules was measured by real-time RT-PCR and expression was normalized to the house-keeping gene HARP (human acidic ribosomal protein). Inflammatory markers assessed by mRNA levels included the chemokine CXCL9, beta-defensin (DEFB4), interferon-gamma, IL-10, IL-17a, IL-22, IL-8, keratin 16, MX-1, IL-12/23 p40, IL-23 p19, iNOS and TNF. These are inflammatory molecules produced by activated DC populations, Th1, Th17, Th22 T-cells and response genes to interferon (MX-1. CXCL9) or IL-17 (defensin). Keratin 16 was also measured by mRNA levels to assess the epidermal response by an alternate means.
# The pharmacodynamic effects of (S)—N-(2-(1-(3-ethoxy-4-methoxyphenyl)-2-(methylsulfonyl)ethyl)-1,3-dioxoisoindolin-4-yl)acetamide were studied in skin biopsies from subjects treated with the compound in a phase 2, multi-center, open-label study evaluating the safety, tolerability, and efficacy of the compound in recalcitrant psoriasis vulgaris. Skin biopsies were taken from uninvolved and involved skin at baseline, and from involved skin after treatment with (S)—N-(2-(1-(3-ethoxy-4-methoxyphenyl)-2-(methylsulfonyl)ethyl)-1,3-dioxoisoindolin-4-yl)acetamide 20 mg BID after 4 and 12 weeks.
# The expression of proinflammatory gene products known to be involved in the pathogenesis of psoriasis was measured by real-time polymerase chain reaction (RT-PCR). With regard to gene expression, there were reductions in iNOS and IL-12/IL-23 p40 mRNAs along with reductions in IL-17A and IL-22 mRNAs, indicating inhibition of the Th1, Th17, and Th22 pathways (FIG. 5). […] Normalized IL-17A mRNA levels were reduced by 49% at week 12 and normalized IL-22 mRNA levels were reduced by 100% at week 12. DEFB4, a defensin induced in keratinocytes by IL-17, was reduced by 55% in week 4 biopsies and by 82% in week 12 biopsies. IL-8, which is induced in keratinocytes by IL-17, was reduced by 76% in week 4 biopsies and by 66% in week 12 biopsies.
compound,measurement,setting,value
"CCOc1cc([C@@H](CS(C)(=O)=O)N2C(=O)c3cccc(NC(C)=O)c3C2=O)ccc1OC [(S)—N-(2-(1-(3-ethoxy-4-methoxyphenyl)-2-(methylsulfonyl)ethyl)-1,3-dioxoisoindolin-4-yl)acetamide]",IL-22/hARP: Gene Expression Median Change (%),"Week 4, No. 10",−74.4%
same,IL-2/hARP: Gene Expression Median Change (%),"Week 4, No. 12",3.33%
same,p40/hARP: Gene Expression Median Change (%),"Week 4, No. 13",−100%
same,CD83/hARP: Gene Expression Median Change (%),"Week 4, No. 15",−12.4%
same,IFNγ/hARP: Gene Expression Median Change (%),"Week 4, No. 15",−38.2%
same,iNOS/hARP: Gene Expression Median Change (%),"Week 4, No. 15",−61.0%
same,DEFB4/hARP: Gene Expression Median Change (%),"Week 4, No. 16",−55.4%
same,IL-17A/hARP: Gene Expression Median Change (%),"Week 4, No. 16",−72.5%
same,CXCL9/hARP: Gene Expression Median Change (%),"Week 4, No. 17",−30.7%
same,MX1/hARP: Gene Expression Median Change (%),"Week 4, No. 17",−51.1%
same,TNFα/hARP: Gene Expression Median Change (%),"Week 4, No. 17",−13.0%
same,IL-8/hARP: Gene Expression Median Change (%),"Week 4, No. 18",−76.4%
same,IL-10/hARP: Gene Expression Median Change (%),"Week 4, No. 18",−49.1%
same,K16/hARP: Gene Expression Median Change (%),"Week 4, No. 18",−62.0%
same,p19/hARP: Gene Expression Median Change (%),"Week 4, No. 18",−53.4%
same,CXCL9 (MIG) mRNA: Median % change from baseline (normalized to hARP),"Week 4, 20 mg b.i.d.",−30.7%
same,DEFB4 mRNA: Median % change from baseline (normalized to hARP),"Week 4, 20 mg b.i.d.",−55.4%
same,IFN-g mRNA: Median % change from baseline (normalized to hARP),"Week 4, 20 mg b.i.d.",−38.2%
same,IL-8 mRNA: Median % change from baseline (normalized to hARP),"Week 4, 20 mg b.i.d.",−76.4%
same,IL-10 mRNA: Median % change from baseline (normalized to hARP),"Week 4, 20 mg b.i.d.",−49.1%
same,IL-12/IL-23 p40 mRNA: Median % change from baseline (normalized to hARP),"Week 4, 20 mg b.i.d.",−100%
same,IL-17A mRNA: Median % change from baseline (normalized to hARP),"Week 4, 20 mg b.i.d.",−72.5%
same,IL-22 mRNA: Median % change from baseline (normalized to hARP),"Week 4, 20 mg b.i.d.",−74.4%
same,IL-23p19 mRNA: Median % change from baseline (normalized to hARP),"Week 4, 20 mg b.i.d.",−53.4%
same,K-16 mRNA: Median % change from baseline (normalized to hARP),"Week 4, 20 mg b.i.d.",−62.0%
same,MX-1 mRNA: Median % change from baseline (normalized to hARP),"Week 4, 20 mg b.i.d.",−51.1%
same,iNOS mRNA: Median % change from baseline (normalized to hARP),"Week 4, 20 mg b.i.d.",−61.0%
same,median reduction in normalized MX-1 mRNA,"Week 4, 20 mg b.i.d.",51%
same,reduction of normalized iNOS mRNA expression,"Week 4, 20 mg b.i.d.",61%
same,IL-22/hARP: Gene Expression Median Change (%),"Week 12, No. 6",−100%
same,p40/hARP: Gene Expression Median Change (%),"Week 12, No. 7",−51.5%
same,DEFB4/hARP: Gene Expression Median Change (%),"Week 12, No. 10",−82.0%
same,IL-2/hARP: Gene Expression Median Change (%),"Week 12, No. 10",−25.0%
same,IL-17A/hARP: Gene Expression Median Change (%),"Week 12, No. 10",−46.7%
same,CD83/hARP: Gene Expression Median Change (%),"Week 12, No. 11",27.39%
same,CXCL9/hARP: Gene Expression Median Change (%),"Week 12, No. 11",−15.8%
same,MX1/hARP: Gene Expression Median Change (%),"Week 12, No. 11",−51.5%
same,iNOS/hARP: Gene Expression Median Change (%),"Week 12, No. 11",−100%
same,IFNγ/hARP: Gene Expression Median Change (%),"Week 12, No. 12",−15.3%
same,TNFα/hARP: Gene Expression Median Change (%),"Week 12, No. 13",−41.3%
same,IL-8/hARP: Gene Expression Median Change (%),"Week 12, No. 14",−79.2%
same,IL-10/hARP: Gene Expression Median Change (%),"Week 12, No. 14",−15.3%
same,K16/hARP: Gene Expression Median Change (%),"Week 12, No. 14",−82.5%
same,p19/hARP: Gene Expression Median Change (%),"Week 12, No. 14",−67.9%
same,CXCL9 (MIG) mRNA: Median % change from baseline (normalized to hARP),"Week 12, 20 mg b.i.d.",−36.4%
same,DEFB4 mRNA: Median % change from baseline (normalized to hARP),"Week 12, 20 mg b.i.d.",−82.3%
same,IFN-g mRNA: Median % change from baseline (normalized to hARP),"Week 12, 20 mg b.i.d.",−37.6%
same,IL-8 mRNA: Median % change from baseline (normalized to hARP),"Week 12, 20 mg b.i.d.",−66.5%
same,IL-10 mRNA: Median % change from baseline (normalized to hARP),"Week 12, 20 mg b.i.d.",−26.5%
same,IL-12/IL-23 p40 mRNA: Median % change from baseline (normalized to hARP),"Week 12, 20 mg b.i.d.",−86.7%
same,IL-17A mRNA: Median % change from baseline (normalized to hARP),"Week 12, 20 mg b.i.d.",−49.4%
same,IL-22 mRNA: Median % change from baseline (normalized to hARP),"Week 12, 20 mg b.i.d.",−100%
same,IL-23p19 mRNA: Median % change from baseline (normalized to hARP),"Week 12, 20 mg b.i.d.",−68.3%
same,K-16 mRNA: Median % change from baseline (normalized to hARP),"Week 12, 20 mg b.i.d.",−78.6%
same,MX-1 mRNA: Median % change from baseline (normalized to hARP),"Week 12, 20 mg b.i.d.",−52.6%
same,iNOS mRNA: Median % change from baseline (normalized to hARP),"Week 12, 20 mg b.i.d.",−100%
same,median reduction in K16 mRNA,"Week 12, 20 mg b.i.d.",78%
same,reduction in normalized MX-1 mRNA,"Week 12, 20 mg b.i.d.",52%
